Data on one compound can be found in publication PMC2798750, “Caenorhabditis elegans N-glycan Core β-galactoside Confers Sensitivity towards Nematotoxic Fungal Galectin CGL2” (PLoS Pathogens, 2010).

The target of this assay is CGL2 (Coprinopsis cinerea, UniProt Q9P4R8). Briefly: biochemical.
Chain of CGL2 (Q9P4R8 whole entry, looked up): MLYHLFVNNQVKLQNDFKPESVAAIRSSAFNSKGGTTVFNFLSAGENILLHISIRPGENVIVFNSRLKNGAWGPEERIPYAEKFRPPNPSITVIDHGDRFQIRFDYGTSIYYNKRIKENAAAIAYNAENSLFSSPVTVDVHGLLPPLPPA

As for `CC(=O)N[C@H]1[C@H](OCCCCCN)O[C@H](CO[C@@H]2O[C@@H](C)[C@@H](O[C@@H]3O[C@H](CO)[C@H](O)[C@H](O)[C@H]3O)[C@@H](O)[C@@H]2O)[C@@H](O)[C@@H]1O` [Galβ1,4Fucα1,6GlcNAcβOC5H10NH2], the Kd is ~100 µM.
